What all share (assay): relative viability (nuclei count vs DMSO), 5 days (fraction); higher = more cells survive
Compound in assay [1]: COc1cc2nccc(Oc3ccc(NC(=O)C4(C(=O)Nc5ccc(F)cc5)CC4)cc3)c2cc1OC [Cabozantinib] + CC1(C)CCC(c2ccc(Cl)cc2)=C(CN2CCN(c3ccc(C(=O)NS(=O)(=O)c4ccc(N[C@H](CCN5CCOCC5)CSc5ccccc5)c(S(=O)(=O)C(F)(F)F)c4)cc3)CC2)C1 [Navitoclax] (partner 0.5 µM)
The essentials: (§1)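 Each reported value is a median over duplicate plates. It expresses relative viability: treated-well nuclei count divided by vehicle-well nuclei count. Lung cancer cell lines in 1536-well plates were dosed by pin tool a day after seeding, alone with one drug or with a fixed anchor-drug dose plus five library-drug doses (not always all listed) in √10 steps, and nuclei were counted after 5 days.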

Compound in assay [2]: COc1cc2nccc(Oc3ccc(NC(=O)C4(C(=O)Nc5ccc(F)cc5)CC4)cc3)c2cc1OC [Cabozantinib] + CC(=O)c1c(C)c2cnc(Nc3ccc(N4CCNCC4)cn3)nc2n(C2CCCC2)c1=O [Palbociclib] (partner 0.5 µM)
The essentials: as §1

Compound in the assay “Kobe2602 + Dasatinib”: C1=CC(=CC=C1NC(=S)NNC2=C(C=C(C=C2[N+](=O)[O-])C(F)(F)F)[N+](=O)[O-])F [Kobe2602] + Cc1nc(Nc2ncc(C(=O)Nc3c(C)cccc3Cl)s2)cc(N2CCN(CCO)CC2)n1 [Dasatinib] (partner 0.075 µM)
In short, it runs like this:
as §1

Compound in the assay “Zosuquidar + AZD7762”: O[C@@H](COc1cccc2ncccc12)CN1CCN([C@@H]2c3ccccc3[C@@H]3[C@H](c4ccccc42)C3(F)F)CC1 [Zosuquidar] + NC(=O)Nc1cc(-c2cccc(F)c2)sc1C(=O)N[C@H]1CCCNC1 [AZD7762] (partner 0.2 µM)
In short, it runs like this:
as §1

Consider NCI-H2405, for which the relative viability in assay [1] (first compound 0.06325 µM) was determined as 1.09; in assay [1] (first compound 0.2 µM) it was 0.881; in assay [1] (first compound 0.6325 µM), 0.787; in assay [1] (first compound 2 µM), 0.856; in assay [2] (first compound 0.02 µM), 0.509; in assay [2] (first compound 0.06325 µM) it was 0.568. Also, the relative viability was 0.568 in assay [2] (first compound 0.2 µM); 0.569 in assay [2] (first compound 0.6325 µM); 0.519 in assay [2] (first compound 2 µM); 0.24 with Kobe2602 + Dasatinib (first compound 0.2 µM); 0.211 with Kobe2602 + Dasatinib (first compound 0.6325 µM); 0.215 in the assay with Kobe2602 + Dasatinib (first compound 2 µM). Further, the relative viability in the assay with Kobe2602 + Dasatinib (first compound 6.325 µM) was 0.228; with Kobe2602 + Dasatinib (first compound 20 µM), 0.228; with Zosuquidar + AZD7762 (first compound 0.01 µM) it was 0.691; with Zosuquidar + AZD7762 (first compound 0.03162 µM), 0.714; with Zosuquidar + AZD7762 (first compound 0.1 µM) it was 0.766; with Zosuquidar + AZD7762 (first compound 0.3162 µM) it was 0.739. The relative viability with Zosuquidar + AZD7762 (first compound 1 µM) came out at 0.539.
For the cell line NCI-H3122, the relative viability worked out at 0.988 in assay [1] (first compound 0.02 µM); 1.03 in assay [1] (first compound 0.06325 µM); 0.987 in assay [1] (first compound 0.2 µM); 1.03 in assay [1] (first compound 0.6325 µM); 1.02 in assay [1] (first compound 2 µM); 0.183 in assay [2] (first compound 0.02 µM). Besides, the relative viability in assay [2] (first compound 0.06325 µM) amounted to 0.179; in assay [2] (first compound 0.2 µM), 0.168; in assay [2] (first compound 0.6325 µM), 0.192; in assay [2] (first compound 2 µM), 0.211; with Kobe2602 + Dasatinib (first compound 0.2 µM), 0.853; with Kobe2602 + Dasatinib (first compound 0.6325 µM) it was 0.806. For the same cell line, the relative viability came to 0.739 in the assay with Kobe2602 + Dasatinib (first compound 2 µM); 0.465 with Kobe2602 + Dasatinib (first compound 6.325 µM); 1 with Kobe2602 + Dasatinib (first compound 20 µM); 0.812 with Zosuquidar + AZD7762 (first compound 0.01 µM); 0.916 with Zosuquidar + AZD7762 (first compound 0.03162 µM); 0.844 with Zosuquidar + AZD7762 (first compound 0.1 µM). For the same cell line, the relative viability with Zosuquidar + AZD7762 (first compound 0.3162 µM) came out at 1.01; with Zosuquidar + AZD7762 (first compound 1 µM) it was 1.
As to PC-3 [JPC-3], the relative viability in assay [1] (first compound 0.02 µM) worked out at 0.829; in assay [1] (first compound 0.06325 µM), 0.929; in assay [1] (first compound 0.6325 µM), 0.784; in assay [1] (first compound 2 µM), 0.868; in assay [2] (first compound 0.02 µM) it was 0.574; in assay [2] (first compound 0.06325 µM), 0.559. The relative viability in assay [2] (first compound 0.6325 µM) came out at 0.514; in assay [2] (first compound 2 µM), 0.636; in the assay with Kobe2602 + Dasatinib (first compound 0.2 µM), 1.01; in the assay with Kobe2602 + Dasatinib (first compound 0.6325 µM), 0.949; in the assay with Kobe2602 + Dasatinib (first compound 2 µM), 0.996; in the assay with Kobe2602 + Dasatinib (first compound 6.325 µM), 0.944. Also, the relative viability with Kobe2602 + Dasatinib (first compound 20 µM) was determined as 0.99; with Zosuquidar + AZD7762 (first compound 0.01 µM) it was 0.78; with Zosuquidar + AZD7762 (first compound 0.03162 µM), 0.9; with Zosuquidar + AZD7762 (first compound 0.1 µM) it was 0.648; in the assay with Zosuquidar + AZD7762 (first compound 0.3162 µM) it was 0.836; with Zosuquidar + AZD7762 (first compound 1 µM), 0.524.
On to PC-14, for which the relative viability is 1.06 in assay [1] (first compound 0.02 µM); 1.09 in assay [1] (first compound 0.06325 µM); 0.931 in assay [1] (first compound 0.6325 µM); 0.997 in assay [1] (first compound 2 µM); 0.511 in assay [2] (first compound 0.02 µM); 0.703 in assay [2] (first compound 0.06325 µM). In addition, the relative viability in assay [2] (first compound 0.6325 µM) was 0.516; in assay [2] (first compound 2 µM), 0.417; with Kobe2602 + Dasatinib (first compound 0.2 µM), 0.253; in the assay with Kobe2602 + Dasatinib (first compound 0.6325 µM) it was 0.253; with Kobe2602 + Dasatinib (first compound 2 µM), 0.259; with Kobe2602 + Dasatinib (first compound 6.325 µM), 0.211. The relative viability in the assay with Kobe2602 + Dasatinib (first compound 20 µM) was 0.139; in the assay with Zosuquidar + AZD7762 (first compound 0.01 µM), 0.3; with Zosuquidar + AZD7762 (first compound 0.03162 µM), 0.372; with Zosuquidar + AZD7762 (first compound 0.1 µM), 0.314; in the assay with Zosuquidar + AZD7762 (first compound 0.3162 µM), 0.363; with Zosuquidar + AZD7762 (first compound 1 µM) it was 0.344.
In the case of RERF-LC-KJ, the relative viability in assay [1] (first compound 0.02 µM) was 1.06; in assay [1] (first compound 0.06325 µM) it was 1.08; in assay [1] (first compound 0.2 µM), 0.948; in assay [1] (first compound 0.6325 µM) it was 0.866; in assay [1] (first compound 2 µM), 0.921; in assay [2] (first compound 0.02 µM), 1.03. Further, the relative viability in assay [2] (first compound 0.06325 µM) turned out to be 1.2; in assay [2] (first compound 0.2 µM), 0.652; in assay [2] (first compound 0.6325 µM) it was 0.568; in assay [2] (first compound 2 µM) it was 1.07; with Kobe2602 + Dasatinib (first compound 0.2 µM), 0.769; with Kobe2602 + Dasatinib (first compound 0.6325 µM), 0.714. The relative viability with Kobe2602 + Dasatinib (first compound 2 µM) is 0.652; with Kobe2602 + Dasatinib (first compound 6.325 µM), 0.556; in the assay with Kobe2602 + Dasatinib (first compound 20 µM), 0.405; with Zosuquidar + AZD7762 (first compound 0.01 µM), 1.02; with Zosuquidar + AZD7762 (first compound 0.03162 µM) it was 0.882; with Zosuquidar + AZD7762 (first compound 0.1 µM), 0.895. Besides, the figures for the relative viability with Zosuquidar + AZD7762 (first compound 0.3162 µM) and with Zosuquidar + AZD7762 (first compound 1 µM) were 1.05 and 0.811, respectively.
